# ChEMBL document CHEMBL4190204, “Trichoderpyrone, a Unique Polyketide Hybrid with a Cyclopentenone-Pyrone Skeleton from the Plant Endophytic Fungus Trichoderma gamsii” (J Nat Prod, 2017)
# What was measured:
# Assay type in all cases: functional, cell-based
# A549 = assay: Cytotoxicity against human A549 cells assessed as reduction in cell viability by MTT assay
# HepG2 = assay: Cytotoxicity against human HepG2 cells assessed as reduction in cell viability by MTT assay
# HeLa = assay: Cytotoxicity against human HeLa cells assessed as reduction in cell viability by MTT assay
SMILES,IC50 (A549) [µM],IC50 (HepG2) [µM],IC50 (HeLa) [µM]
C=C[C@]1(O)CC(N)=C([C@@H](C)c2c(O)cc(C)oc2=O)C1=O,16.9,30.8,33.9
COc1cc([C@@H]2c3cc4c(cc3[C@@H](O[C@@H]3O[C@@H]5CO[C@@H](C)O[C@H]5[C@H](O)[C@H]3O)[C@H]3COC(=O)[C@H]23)OCO4)cc(OC)c1O [ETOPOSIDE],16.6,16.1,15
